In patent US20070087975A1, “Compound useful for the prevention and treatment of left ventricular hypertrophy in dialysed patients” (SIGMA-TAU INDUSTRIE FARMACEUTICHE RIUNITE SPA, priority 2005, published 2007):

Columns and labels:
[1] = tested on: left ventricular (LV) function; details: 58 patients with primary glomerulonephritis and moderate chronic renal failure; cited from earlier work
[2] = tested on: decompensated eccentric hypertrophy produced by myocardial infarction; details: rats without renal damages; similar to ACE inhibition; cited from earlier work
[3] = tested on: left ventricular hypertrophy (LVH) in ESRD dialysed patients; assay: Clinical trial of propionyl L-carnitine in ESRD patients on dialysis (multicentre, randomized, double-blind, placebo-controlled, echocardiography); assay type: in vivo, human; details: 26 weeks
Experimental: A clinical trial (multicentre, parallel, randomized, double-blind, dose- ranging placebo-controlled study in 300 patients) useful for evaluating both preventive and/or curative effect of the treatment with propionyl L-carnitine (3 and 6 mg/kg given intravenously three times a week at the end of the hemodyalisis session for 26 weeks) has been done.
1) male or female out-patients aged >18 years, suffering from ESRD on bicarbonate dialysis three times a week;
2) patients who have reached a certain degree of dialytic stability (at least since six months on dialysis), so that the variability due to the progressive patient adaptation of the therapeutic treatment is controlled, presenting no clinical signs of hydric overload at the end of dialysis;
3) patients showing a degree of cardiac deterioration defined as inter-ventricular septum and left ventricular wall thickness ≧11 mm;
4) patients with left ventricular ejection fraction >40%;
During the whole Randomised Treatment Period, all drugs considered indispensable for the treatment of the disease under study could be administrated providing that they were administered for at least three months prior to patient's enrollment, and that the dosage of those drugs remained stable throughout the whole treatment period. […]

Structure (SMILES)	LV ejection fraction, early and late transmitral flow velocities and early to late LV inflow velocities ratio [1]	magnitude of decompensated eccentric hypertrophy produced by myocardial infarction [2]	effect on the signs of LVH, signs (a)-(c): septum and posterior wall thickness, end-systolic and end-diastolic LV size and volume, LV ejection fraction ([3]; 3 and 6 mg/kg i.v. three times a week at end of hemodialysis session, preliminary ANOVA analysis)	progression of the signs of LVH, points (a)-(c), in the treated group respect to its base line ([3]; T26 vs T0, 3 and 6 mg/kg i.v. three times a week, control group signs worsened)
C[C@H](CS)C(=O)N1CCC[C@H]1C(=O)O [captopril]	not significantly affected			
CCOC(=O)[C@H](CCc1ccccc1)N[C@@H](C)C(=O)N1CCC[C@H]1C(=O)O [enalapril]	not significantly affected			
CCC(=O)O[C@H](CC(=O)[O-])C[N+](C)(C)C [propionyl L-carnitine]		reduces the magnitude of decompensated eccentric hypertrophy	useful for treating the signs of LVH	able to reduce the progression of the signs of LVH
